Assay results taken from US20240059691A1 (KALVISTA PHARMACEUTICALS LIMITED, priority 2020, published 2024).

target: Human Factor XIIa (Homo sapiens (Human), UniProt P00748); test: Determination of FXIIa inhibition (fluorogenic substrate H-DPro-Phe-Arg-AFC, IC50 assay); type: biochemical; details: substrate H-DPro-Phe-Arg-AFC at Km, 25° C.; class scale A-G
Experimental: Determination of FXIIa Inhibition
In vitro inhibition of Factor XIIa was determined using an IC50 assay based on standard literature methods (see e.g Baeriswyl et al., ACS Chem. Biol., 2015, 10 (8) 1861; Bouckaert et al., European Journal of Medicinal Chemistry 110 (2016) 181). Human Factor XIIa (Enzyme Research Laboratories) was incubated at 25° C. with the fluorogenic substrate H-DPro-Phe-Arg-AFC (Peptide Protein Science) and various concentrations of the test compound. Protease activity was measured by monitoring the accumulation of liberated fluorescence from the substrate over 5 min at 25° C. The linear rate of fluorescence increase per minute was expressed as percentage (%) activity. The Km for the cleavage of the substrate by FXIIa was determined by standard transformation of the Michaelis-Menten equation. The compound inhibitor assays were performed at substrate Km concentration. IC50 values were calculated as the concentration of inhibitor giving 50% inhibition (IC50) of the uninhibited enzyme activity (100%).

Human Factor XIIa, sequence (P00748 373-615): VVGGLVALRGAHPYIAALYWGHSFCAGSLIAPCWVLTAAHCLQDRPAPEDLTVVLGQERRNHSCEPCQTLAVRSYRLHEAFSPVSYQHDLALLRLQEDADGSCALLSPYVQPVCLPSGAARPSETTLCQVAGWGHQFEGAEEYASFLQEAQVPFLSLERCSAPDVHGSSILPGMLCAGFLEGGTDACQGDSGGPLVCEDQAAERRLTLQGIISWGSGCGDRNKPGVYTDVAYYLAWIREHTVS

Row | IC50 [nM] | SMILES
1 | 300 to 1000 | CN1CCC(CCc2cccc(CNc3ccc4c(N)nccc4c3)c2)CC1 [Example 4410, 6-N-({3-[2-(1-methylpiperidin-4-yl)ethyl]phenyl}methyl)isoquinoline-1,6-diamine]
2 | 100 to 300 | Nc1nccc2c(NCc3cc(N4CCn5c(nnc5C(F)(F)F)C4)cs3)cccc12 [Example 8459, N5-((4-(3-(Trifluoromethyl)-5,6-dihydro-[1,2,4]triazolo[4,3-a]pyrazin-7(8H)-yl)thiophen-2-yl)methyl)isoquinoline-1,5-diamine]
3 | 300 to 1000 | CN1CCC(CCc2cc(CNc3ccc4c(N)nccc4c3)ccn2)CC1 [Example 4409, 6-N-({2-[2-(1-methylpiperidin-4-yl)ethyl]pyridin-4-yl}methyl)isoquinoline-1,6-diamine]
4 | 300 to 1000 | CN1CCN(CCc2ccc(CNc3ccc4c(N)nccc4c3)cc2)CC1 [Example 2180, 6-N-({4-[2-(4-methylpiperazin-1-yl)ethyl]phenyl}methyl)isoquinoline-1,6-diamine]
5 | 10000 to 40000 | Cc1cc(N2CCn3c(nnc3C(F)(F)F)C2)ncc1CNc1ccnc(N)c1 [Example 1323, N4-((4-methyl-6-(3-(trifluoromethyl)-5,6-dihydro-[1,2,4]triazolo[4,3-a]pyrazin-7(8H)-yl)pyridin-3-yl)methyl)pyridine-2,4-diamine]
6 | 300 to 1000 | CC(C)(O)CN1CCC(COc2ccc(CNc3ccc4c(N)nccc4c3)cn2)CC1 [Example 1017, 1-(4-(((5-(((1-aminoisoquinolin-6-yl)amino)methyl)pyridin-2-yl)oxy)methyl)piperidin-1-yl)-2-methylpropan-2-ol]
7 | 300 to 1000 | CN1CCC(CCn2cc(CNc3cccc4c(N)nccc34)cn2)CC1 [Example 3255, N5-((1-(2-(1-methylpiperidin-4-yl)ethyl)-1H-pyrazol-4-yl)methyl)isoquinoline-1,5-diamine]
8 | 300 to 1000 | Cc1cc(N2CCn3c(nnc3C(F)(F)F)C2)ncc1CNc1ccc2c(N)ncc(Cl)c2c1 [Example 1334, 4-chloro-N6-((4-methyl-6-(3-(trifluoromethyl)-5,6-dihydro-[1,2,4]triazolo[4,3-a]pyrazin-7(8H)-yl)pyridin-3-yl)methyl)isoquinoline-1,6-diamine]
9 | 1000 to 3000 | CN1CCC(OCc2ccc(CN(C)c3cccc4c(N)nccc34)c(Cl)c2)CC1 [Example 2203, 5-N-[(2-chloro-4-{[(1-methylpiperidin-4-yl)oxy]methyl}phenyl)methyl]-5-N-methylisoquinoline-1,5-diamine]
10 | 10000 to 40000 | CN1CCC(COc2ccc(CNc3ccc4c(N)ncnc4c3)cn2)CC1 [Example 1021, N7-((6-((1-methylpiperidin-4-yl)methoxy)pyridin-3-yl)methyl)quinazoline-4,7-diamine]
11 | 1000 to 3000 | CC(C)N1CCC(OCc2cc(CNc3ccc4c(N)ncc(Cl)c4c3)ccn2)CC1 [Example 4296, 4-chloro-6-N-[(2-{[(1-isopropylpiperidin-4-yl)oxy]methyl}pyridin-4-yl)methyl]isoquinoline-1,6-diamine]
12 | 300 to 1000 | Cn1ccnc1CCCOc1cc(CNc2cccc3c(N)nccc23)ccn1 [Example 4421, 5-N-({2-[3-(1-methylimidazol-2-yl)propoxy]pyridin-4-yl}methyl)isoquinoline-1,5-diamine]
13 | 1000 to 3000 | CN1CCC(COc2ccc(CNc3cnc4[nH]cc(Cl)c4c3)cn2)CC1 [Example 1020, 3-chloro-N-((6-((1-methylpiperidin-4-yl)methoxy)pyridin-3-yl)methyl)-1H-pyrrolo[2,3-b]pyridin-5-amine]
14 | 1000 to 3000 | Cn1ccnc1CCCOc1cc(CNc2ccc3c(N)nccc3c2)ccn1 [Example 4420, 6-N-({2-[3-(1-methylimidazol-2-yl)propoxy]pyridin-4-yl}methyl)isoquinoline-1,6-diamine]
15 | 1000 to 3000 | Cc1cc2c(NCc3cnc(N4CCn5c(nnc5C(F)(F)F)C4)cc3C)cncc2[nH]1 [Example 1341, 2-methyl-N-((4-methyl-6-(3-(trifluoromethyl)-5,6-dihydro-[1,2,4]triazolo[4,3-a]pyrazin-7(8H)-yl)pyridin-3-yl)methyl)-1H-pyrrolo[2,3-c]pyridin-4-amine]
16 | 100 to 300 | Nc1nccc2cc(NCc3ccnc(OCC4CCn5ccnc5C4)c3)ccc12 (centres unmarked) [Example 4408, N6-((2-((5,6,7,8-tetrahydroimidazo[1,2-a]pyridin-7-yl)methoxy)pyridin-4-yl)methyl)isoquinoline-1,6-diamine]
17 | 3000 to 10000 | Cn1ccnc1COc1cc(CNc2cccc3c(N)nccc23)ccn1 [Example 4423, N5-((2-((1-methyl-1H-imidazol-2-yl)methoxy)pyridin-4-yl)methyl)isoquinoline-1,5-diamine]
18 | 300 to 1000 | CN1CCC(COc2ccc(CCc3ccc4c(N)nccc4c3)cn2)CC1 [Example 1018, 6-(2-(6-((1-methylpiperidin-4-yl)methoxy)pyridin-3-yl)ethyl)isoquinolin-1-amine]
19 | 1000 to 3000 | CN1CCC(Cn2cc(CNc3ccc4c(N)nccc4c3)cn2)CC1 [Example 3253, N6-((1-((1-methylpiperidin-4-yl)methyl)-1H-pyrazol-4-yl)methyl)isoquinoline-1,6-diamine]
20 | 300 to 1000 | Nc1nccc2c(NS(=O)(=O)c3ccc(N4CCn5c(nnc5C(F)(F)F)C4)nc3)cccc12 [Example 1337, N-(1-aminoisoquinolin-5-yl)-6-(3-(trifluoromethyl)-5,6-dihydro-[1,2,4]triazolo[4,3-a]pyrazin-7(8H)-yl)pyridine-3-sulfonamide]
21 | 100 to 300 | Cc1cc(N2CCn3c(nnc3C(F)(F)F)C2)ncc1CNc1ccc2c(N)nccc2c1 [Example 1333, N6-((4-methyl-6-(3-(trifluoromethyl)-5,6-dihydro-[1,2,4]triazolo[4,3-a]pyrazin-7(8H)-yl)pyridin-3-yl)methyl)isoquinoline-1,6-diamine]
22 | 10 to 100 | COCC1c2nnc(C(F)(F)F)n2CCN1c1cc(C)c(CNc2cccc3c(N)nccc23)cn1 (single isomer, unassigned) [Example 1344, (R*)-N5-((6-(8-(methoxymethyl)-3-(trifluoromethyl)-5,6-dihydro-[1,2,4]triazolo[4,3-a]pyrazin-7(8H)-yl)-4-methylpyridin-3-yl)methyl)isoquinoline-1,5-diamine]
23 | 100 to 300 | Nc1nccc2cc(NCc3ccc(OCC4CCNCC4)nc3)ccc12 [Example 1016, 6-N-{[6-(piperidin-4-ylmethoxy)pyridin-3-yl]methyl}isoquinoline-1,6-diamine]
24 | 3000 to 10000 | Cn1ccnc1CCCNc1ncc(CNc2ccc3c(N)ncc(Cl)c3c2)cn1 [Example 1038, 4-chloro-6-N-[(2-{[3-(1-methylimidazol-2-yl)propyl]amino}pyrimidin-5-yl)methyl]isoquinoline-1,6-diamine]
25 | 10000 to 40000 | Nc1nccc2cc(NCc3cccc(CN4CCCC4)c3)ccc12 [Example 4287, 6-N-{[3-(pyrrolidin-1-ylmethyl)phenyl]methyl}isoquinoline-1,6-diamine]
26 | 10000 to 40000 | CN1CCC(COc2ccc(CNc3cccc4c(N)ncnc34)cn2)CC1 [Example 1022, N8-[[6-[(1-methyl-4-piperidyl)methoxy]-3-pyridyl]methyl]quinazoline-4,8-diamine]
